From US7655689B2, “Fused heterocyclic succinimide compounds and analogs thereof, modulators of nuclear hormone receptor function” (Bristol-Myers Squibb Company, priority 2000, dated 2010) come the findings set out here.

Like-named read-outs stand apart in the source and are kept apart here.

In one assay the target is glucocorticoid receptor (Homo sapiens, UniProt P04150). As to conditions: concentration ≦10 μM, A549 cells. Here is the method:
A549 cells, which contain endogenous glucocorticoid receptor, were stably transfected with an AP-1 DNA binding site attached to the luciferase gene. […] Cells are plated the day before the assay at approximately 40000 cells/well. […] Activity is measured by analysis in a luminometer as compared to control experiments treated with buffer or dexamethasome.

Assay [1] concerns the target T1, AR (Rattus norvegicus, UniProt P15207).
T1 sequence (P15207 1-902): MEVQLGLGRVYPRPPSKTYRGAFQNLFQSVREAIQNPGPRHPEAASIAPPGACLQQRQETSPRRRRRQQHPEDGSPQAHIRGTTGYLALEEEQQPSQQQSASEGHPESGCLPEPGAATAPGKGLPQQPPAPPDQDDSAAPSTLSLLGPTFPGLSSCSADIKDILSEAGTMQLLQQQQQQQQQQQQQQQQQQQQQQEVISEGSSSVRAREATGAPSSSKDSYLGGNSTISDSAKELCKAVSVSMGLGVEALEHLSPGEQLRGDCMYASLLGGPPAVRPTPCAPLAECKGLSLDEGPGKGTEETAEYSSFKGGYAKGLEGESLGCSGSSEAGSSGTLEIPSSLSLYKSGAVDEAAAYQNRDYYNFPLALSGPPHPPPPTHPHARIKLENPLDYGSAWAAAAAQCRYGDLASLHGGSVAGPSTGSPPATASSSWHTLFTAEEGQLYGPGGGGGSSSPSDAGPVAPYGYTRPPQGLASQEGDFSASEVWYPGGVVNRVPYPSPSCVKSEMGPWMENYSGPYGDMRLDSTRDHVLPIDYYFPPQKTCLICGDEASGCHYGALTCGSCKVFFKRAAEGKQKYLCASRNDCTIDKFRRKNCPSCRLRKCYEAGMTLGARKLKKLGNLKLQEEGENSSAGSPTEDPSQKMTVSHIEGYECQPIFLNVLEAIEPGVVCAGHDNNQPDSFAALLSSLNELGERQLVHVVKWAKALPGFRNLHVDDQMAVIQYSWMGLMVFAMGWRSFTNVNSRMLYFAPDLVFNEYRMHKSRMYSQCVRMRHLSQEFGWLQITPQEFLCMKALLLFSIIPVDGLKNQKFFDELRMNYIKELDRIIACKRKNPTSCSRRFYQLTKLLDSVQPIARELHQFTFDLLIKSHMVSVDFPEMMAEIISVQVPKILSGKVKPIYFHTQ
An excerpt: The activity of compounds of the present invention as AR agonists was investigated in an immature male rat model, a recognized test of anabolic effects in muscle and sustaining effects in sex organs for a given compound, as described in L. G. Hershberger et al., Proc. Soc. […] Yak. Ken. Nem.
The basis of this assay lies in the well-defined action of androgenic agents on the maintenance and growth of muscle tissues and sexual accessory organs in animals and man. […] J. Anat. […] I. Quantitative data” Boll.-Soc. Ital. Biol. Sper. […] II. Electron-microscopic observations” Boll.-Soc. Ital. Biol. Sper. […] As described above, the effects of androgens on maintenance of male sexual accessory organs, such as the prostate and seminal vesicles, is well described. Castration results in rapid involution and atrophy of the prostate and seminal vesicles. This effect can be reversed by exogenous addition of androgens. Since both the levator ani muscle and the male sex organs are the tissues most responsive to the effects of androgenic agents, this model is used to determine the androgen dependent reversal of atrophy in the levator ani muscle and the sex accessory organs in immature castrated rats. Sexually mature rats (200-250 g, 6-8 weeks-old, Sprague-Dawley, Harlan) were acquired castrated from the vendor (Taconic). […]

The target of assay [2] is T1, AR. The source holds these as a separate data set.

Sequence of glucocorticoid receptor (P04150 whole entry): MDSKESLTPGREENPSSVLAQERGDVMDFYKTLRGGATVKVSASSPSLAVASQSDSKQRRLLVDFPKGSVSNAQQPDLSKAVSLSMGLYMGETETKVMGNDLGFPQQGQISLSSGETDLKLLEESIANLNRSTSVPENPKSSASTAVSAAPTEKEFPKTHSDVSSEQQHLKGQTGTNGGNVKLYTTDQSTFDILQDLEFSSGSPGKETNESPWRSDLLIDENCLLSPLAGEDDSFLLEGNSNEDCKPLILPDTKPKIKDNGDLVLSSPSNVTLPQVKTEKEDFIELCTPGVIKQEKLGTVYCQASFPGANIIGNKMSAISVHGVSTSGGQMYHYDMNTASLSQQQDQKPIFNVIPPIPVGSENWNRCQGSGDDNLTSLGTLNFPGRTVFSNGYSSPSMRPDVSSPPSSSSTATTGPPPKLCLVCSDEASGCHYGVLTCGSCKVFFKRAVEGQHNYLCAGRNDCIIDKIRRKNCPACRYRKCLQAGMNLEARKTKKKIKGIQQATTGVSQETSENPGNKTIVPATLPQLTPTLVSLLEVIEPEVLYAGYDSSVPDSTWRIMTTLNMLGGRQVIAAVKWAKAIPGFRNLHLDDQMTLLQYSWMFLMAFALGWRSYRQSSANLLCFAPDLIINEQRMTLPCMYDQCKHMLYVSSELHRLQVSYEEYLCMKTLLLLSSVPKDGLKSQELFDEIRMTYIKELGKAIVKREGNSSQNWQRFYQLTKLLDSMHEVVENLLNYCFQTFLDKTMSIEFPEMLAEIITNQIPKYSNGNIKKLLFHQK

On to `C[C@@H]1C[C@H]2[C@@H]3CCC4=CC(=O)C=C[C@]4(C)[C@@]3(F)[C@@H](O)C[C@]2(C)[C@@]1(O)C(=O)CO` [dexamethasone], for which, at glucocorticoid receptor, the “suppression of activity (% inhibition of the reporter system vs buffer control with 10 ng/ml PMA)” value is roughly 65%.

`CCC(=O)O[C@H]1CC[C@H]2[C@@H]3CCC4=CC(=O)CC[C@]4(C)[C@H]3CC[C@]12C` [testosterone propionate, Testosterone Propionate]: the “EC50 (increase in organ weight)” value at AR [1] (castrated rats) and at AR [2] (immature castrated rats) was roughly 0.03 mg each time. Also, the “potency relative to free T” value at AR [1] (organ weight increase) is recorded as 10-30 fold; on AR [2] (organ weight increase, immature castrated rats), 10-30 fold. At AR [2] (immature castrated rat model), this compound showed an ED80 of 0.1 mg.
